Results reported in US10568899B2, “Combinations of a mithramycin analogue and another chemotherapeutic agent for the treatment of triple negative breast cancer” (ENTRECHEM, S.L., priority 2015, dated 2020).

How the values were obtained:
MDA-MB-231 cells = assay: MTT-based cell proliferation assay, single drugs and combinations (CI by CalcuSyn)
Description: (§1) All cell lines were cultured at 37° C. in a humidified atmosphere in the presence of a mixture of 5% CO2 and 95% air. Cells were grown in DMEM or in RPMI medium containing high glucose concentration (4,500 mg/liter) and antibiotics (penicillin at 100 mU/ml, streptomycin at 100 μg/ml) and supplemented with 10% FBS. Cell lines were provided by Drs. J. Losada and A. Balmain, (originally from Dr. J. W. Gray's Laboratory who in turn obtained them from the ATCC or from collections development in the laboratories of Drs. S. Ethier and A. Gazdar, to avoid errors occurring when obtained through “second-hand” sources) [Cancer Cell. (2006) 10:515-527]. Cell identities were verified by STR analyses [Oncogene (2014) 33:148-156].
(§2) Cells were plated in 24-well plates at 10,000-20,000 cells/well and cultured overnight in DMEM or RPMI+10% FBS. […] Cell proliferation was analyzed 48 and 72 hours later by an MTT-based assay as described in Cancer Res. (2005) 65:6801-6810.
(§3) Results are plotted as the mean±SD values of quadruplicates from two experiments.
(§4) To explore whether F(I) potentiated the action of drugs used in the therapy of TNBC, drug combination experiments were performed, and the results analyzed by the Chou and Talalay algorithm [Adv. Enzyme Regul.

HBL-100 cells = assay: as above
Description: as §1, §2, §3, §4

[1] = tested on: TNBC cell lines (HCC-70, HCC-3153, BT549, MDA-MB-231, HCC-1937, HBL-100, HCC-1187 and HS578T); assay: MTT metabolism in panel of TNBC cell lines; type: cell-based
Description: as §1
Cells were plated in 24-well plates at 10,000-20,000 cells/well and cultured overnight in DMEM or RPMI+10% FBS. The next day medium was replaced with DMEM or RPMI containing different concentrations of F(I). Cell proliferation was analyzed 48 and 72 hours later by an MTT-based assay as described in Cancer Res. (2005) 65:6801-6810. […]
To analyze the potential antineoplastic effect of F(I) on TNBC, its action on a panel of eight representative TNBC cell lines (HCC-70, HCC-3153, BT549, MDA-MB-231 (MDAMB231), HCC-1937, HBL-100 (HBL100), HCC-1187 and HS578T) using MTT metabolism as readout of the effect of F(I) on cell number was evaluated. […]

[2] = Body weight of treated mice; type: in vivo
Description: (§5) Mice were manipulated at the animal facility of the CIC in Salamanca following legal guidelines. Female BALB/c nu/nu mice (7 weeks old) were obtained from Charles River Laboratories (Wilmington, Mass., USA). A total of 5×10^6 MDA-MB231 cells in 100 μL of DMEM and 100 μL of Matrigel (BD Biosciences) were injected subcutaneously into the right and left flank of each mouse. When tumours reached a mean volume of 100 mm^3, animals (n=32) were randomized into four groups (with equal average tumour volumes) (vehicle n=8, F(I) n=8, docetaxel n=8, and F(I)+docetaxel n=8). Mice were treated every four days intravenously with 12 mg/kg of F(I), and weekly, intraperitoneally with docetaxel 15 mg/kg. Tumour diameters were serially measured by callipers twice per week and tumour volumes were calculated by the following formula: volume=width^2×length/2. Mice were sacrificed on day 41. For biochemical and drug accumulation analyses, tumor samples were obtained after sacrifice of the animals by CO2 inhalation, and 6 hours after being treated with the different drugs, and immediately frozen in liquid nitrogen. The tumors were minced, washed with PBS, and homogenized (Dispomix, L&M Biotech, Holly Springs, N.C., USA) in ice-cold lysis buffer (1.5 mL/100 mg tumor). This homogenate was centrifuged at 10,000×g for 20 minutes at 4° C., and the supernatants were transferred to new tubes. […]

[3] = F(I) concentration in the tumors; type: in vivo; conditions: 6 hours after the last treatment, F(I) 12 mg/kg intravenously, two tumors from two different mice
Description: as §5

[4] = cited from earlier work
[5] = tested on: MDA-MB-231 xenografted tumors; assay: Xenograft study, tumour volume; type: in vivo, mice; conditions: F(I) 12 mg/kg intravenously every 3 days; FIG. 2
Description: as §5, with “Mice were treated every four days intravenously with 12 mg/kg of F(I), and weekly, intraperitoneally with docetaxel 15 mg/kg.” left out, “tumor).” for “tumor). This homogenate was centrifuged at 10,000×g for 20 minutes at 4° C., and the supernatants were transferred to new tubes.”
Comparisons of continuous variables between two groups for the mice tumor model experiments were performed using a two-sided Student's t-test. […] All data were analyzed using the statistical software SPSS 21.0 (SPSS Inc., Chicago, Ill.). […]

CO[C@@H]([C@@H]1Cc2cc3cc(O[C@H]4CC(O[C@H]5CC(O)[C@H](O)C(C)O5)[C@H](O)C(C)O4)c(C)c(O)c3c(O)c2C(=O)[C@H]1O[C@H]1CC(O[C@H]2CC(O[C@H]3CC(O)[C@H](O)C(C)O3)[C@@H](O)C(C)O2)[C@H](O)C(C)O1)[C@@H](O)C(C)=O (stereo partly drawn) [F(I), demycarosyl-3D-β-D-digitoxosyl-mithramycin SK]
MTT metabolism mean, Assay 1 (MDA-MB-231 cells; F(I) 10 nM alone): 94.27%
MTT metabolism mean, Assay 2 (MDA-MB-231 cells; F(I) 10 nM alone): 96.65%
MTT metabolism mean, Assay 1 (MDA-MB-231 cells; F(I) 50 nM alone): 70.05%
MTT metabolism mean, Assay 2 (MDA-MB-231 cells; F(I) 50 nM alone): 59.26%
MTT metabolism mean, Assay 1 (HBL-100 cells; F(I) 10 nM alone): 85.52%
MTT metabolism mean, Assay 2 (HBL-100 cells; F(I) 10 nM alone): 99.53%
MTT metabolism mean, Assay 1 (HBL-100 cells; F(I) 50 nM alone): 66.35%
MTT metabolism mean, Assay 2 (HBL-100 cells; F(I) 50 nM alone): 62.85%
IC50 ([1]; 72 hours of treatment, all cell lines (FIG. 1)): < 100 nM
Effect on MTT metabolism ([1]; all the TNBC cell lines studied, 48 or 72 hours, different doses): decreased MTT metabolism of all the TNBC cell lines studied in a dose-dependent and time-dependent manner
Body weight ([2]; F(I) 12 mg/kg, FIG. 3): slight decrease initially
Tolerability ([2]; alone or in combination, suggested by body weights, FIG. 6): well tolerated
F(I) concentration in the tumors [3]: 2.2 µg/g
concentration at 6 h ([3]; female, BALB/c nu/nu, mouse, tumor, iv, 12 mg/kg): 3800 ng/g
Toxicity in vivo relative to mithramycin (times less toxic) [4]: 10 times
Effect on tumor growth [5]: inhibitory effect on tumor growth

CC(=O)O[C@@]12CO[C@@H]1C[C@H](O)[C@@]1(C)C(=O)[C@H](O)C3=C(C)[C@@H](OC(=O)[C@H](O)[C@@H](NC(=O)OC(C)(C)C)c4ccccc4)C[C@@](O)([C@@H](OC(=O)c4ccccc4)[C@H]21)C3(C)C [Docetaxel, docetaxel]
MTT metabolism mean, Assay 1 (MDA-MB-231 cells; Docetaxel 2.5 nM alone): 84.46%
MTT metabolism mean, Assay 2 (MDA-MB-231 cells; Docetaxel 2.5 nM alone): 60.92%
MTT metabolism mean, Assay 1 (MDA-MB-231 cells; Docetaxel 5 nM alone): 69.03%
MTT metabolism mean, Assay 2 (MDA-MB-231 cells; Docetaxel 5 nM alone): 51.36%
MTT metabolism mean, Assay 1 (MDA-MB-231 cells; Docetaxel 10 nM alone): 38.17%
MTT metabolism mean, Assay 2 (MDA-MB-231 cells; Docetaxel 10 nM alone): 44.50%
MTT metabolism mean, Assay 1 (HBL-100 cells; Docetaxel 2.5 nM alone): 96.93%
MTT metabolism mean, Assay 2 (HBL-100 cells; Docetaxel 2.5 nM alone): 83.41%
MTT metabolism mean, Assay 1 (HBL-100 cells; Docetaxel 5 nM alone): 85.11%
MTT metabolism mean, Assay 2 (HBL-100 cells; Docetaxel 5 nM alone): 70.61%
MTT metabolism mean, Assay 1 (HBL-100 cells; Docetaxel 10 nM alone): 55.03%
MTT metabolism mean, Assay 2 (HBL-100 cells; Docetaxel 10 nM alone): 54.59%

Cc1nc(Nc2ncc(C(=O)Nc3c(C)cccc3Cl)s2)cc(N2CCN(CCO)CC2)n1 [Dasatinib, dasatinib]
MTT metabolism mean, Assay 1 (MDA-MB-231 cells; Dasatinib 0.5 μM alone): 65.29%
MTT metabolism mean, Assay 2 (MDA-MB-231 cells; Dasatinib 0.5 μM alone): 62.89%
MTT metabolism mean, Assay 1 (MDA-MB-231 cells; Dasatinib 1.0 μM alone): 59.58%
MTT metabolism mean, Assay 2 (MDA-MB-231 cells; Dasatinib 1.0 μM alone): 63.07%
MTT metabolism mean, Assay 1 (MDA-MB-231 cells; Dasatinib 2.0 μM alone): 56.05%
MTT metabolism mean, Assay 2 (MDA-MB-231 cells; Dasatinib 2.0 μM alone): 55.89%
MTT metabolism mean, Assay 1 (HBL-100 cells; Dasatinib 0.5 μM alone): 61.25%
MTT metabolism mean, Assay 2 (HBL-100 cells; Dasatinib 0.5 μM alone): 65.30%
MTT metabolism mean, Assay 1 (HBL-100 cells; Dasatinib 1.0 μM alone): 61.08%
MTT metabolism mean, Assay 2 (HBL-100 cells; Dasatinib 1.0 μM alone): 64.94%
MTT metabolism mean, Assay 1 (HBL-100 cells; Dasatinib 2.0 μM alone): 58.58%
MTT metabolism mean, Assay 2 (HBL-100 cells; Dasatinib 2.0 μM alone): 58.48%

Nc1ccn([C@@H]2O[C@H](CO)[C@@H](O)C2(F)F)c(=O)n1 [Gemcitabine, gemcitabine]
MTT metabolism mean, Assay 1 (MDA-MB-231 cells; Gemcitabine 5 nM alone): 77.29%
MTT metabolism mean, Assay 2 (MDA-MB-231 cells; Gemcitabine 5 nM alone): 90.99%
MTT metabolism mean, Assay 1 (MDA-MB-231 cells; Gemcitabine 10 nM alone): 67.76%
MTT metabolism mean, Assay 2 (MDA-MB-231 cells; Gemcitabine 10 nM alone): 84.33%
MTT metabolism mean, Assay 1 (MDA-MB-231 cells; Gemcitabine 20 nM alone): 48.14%
MTT metabolism mean, Assay 2 (MDA-MB-231 cells; Gemcitabine 20 nM alone): 64.95%
MTT metabolism mean, Assay 1 (HBL-100 cells; Gemcitabine 5 nM alone): 90.75%
MTT metabolism mean, Assay 2 (HBL-100 cells; Gemcitabine 5 nM alone): 88.93%
MTT metabolism mean, Assay 1 (HBL-100 cells; Gemcitabine 10 nM alone): 85.93%
MTT metabolism mean, Assay 2 (HBL-100 cells; Gemcitabine 10 nM alone): 83.52%
MTT metabolism mean, Assay 1 (HBL-100 cells; Gemcitabine 20 nM alone): 61.98%
MTT metabolism mean, Assay 2 (HBL-100 cells; Gemcitabine 20 nM alone): 80.59%

CCC1=C[C@@H]2CN(C1)Cc1c([nH]c3ccccc13)[C@@](C(=O)OC)(c1cc3c(cc1OC)N(C)[C@H]1[C@@](O)(C(=O)OC)[C@H](OC(C)=O)[C@]4(CC)C=CCN5CC[C@]31[C@@H]54)C2 [Vinorelbine, vinorelbine]
MTT metabolism mean, Assay 1 (MDA-MB-231 cells; Vinorelbine 1 nM alone): 94.11%
MTT metabolism mean, Assay 2 (MDA-MB-231 cells; Vinorelbine 1 nM alone): 73.02%
MTT metabolism mean, Assay 1 (MDA-MB-231 cells; Vinorelbine 3 nM alone): 84.61%
MTT metabolism mean, Assay 2 (MDA-MB-231 cells; Vinorelbine 3 nM alone): 71.99%
MTT metabolism mean, Assay 1 (MDA-MB-231 cells; Vinorelbine 5 nM alone): 84.42%
MTT metabolism mean, Assay 2 (MDA-MB-231 cells; Vinorelbine 5 nM alone): 56.42%
